Patent US11000033B2, “Ketone or oxime compound, and herbicide” (NISSAN CHEMICAL CORPORATION, priority 2014, dated 2021)

Legend:
Format in all cases: in vivo
transplanted rice plant = assay: Test Example 1: effect on crop, application before weed generation in submerged conditions (symbol a)
Procedure, shortened: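 Alluvial soil pots flooded to 4 cm water, sown with Echinochloa oryzacola, Scirpus juncoides and Monochoria vaginalis, then transplanted with 2.5 leaf stage rice seedlings; pre-emergence application. Greenhouse 25° C. to 30° C.; scored 0–5 by herbicidal ratio 3 weeks after application.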

Amaranthus retroflexus = assay: Test Example 4: herbicidal effect by soil treatment (symbol N); conditions: for Herbicidal effect grade, N: Amaranthus retroflexus: application herbicide amount 320 g/ha
Procedure, shortened: (§1)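 Seeds were sown in sterilized diluvial soil, covered with about 1.5 cm of soil, and the soil surface was sprayed with a water-diluted emulsion of the compound at a predetermined rate. Plants grew in a greenhouse at 25° C. to 30° C.; effects were scored visually 3 weeks after application.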

Monochoria vaginalis = assay: Test Example 1: herbicidal activity, application before weed generation in submerged conditions (symbol C)
Procedure, shortened: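 Weeds are sown into submerged alluvial soil alongside transplanted 2.5-leaf rice, and the compound, as an emulsion diluted to a set rate, is applied onto the water before emergence. Rating on the 0–5 herbicidal-ratio scale follows 3 weeks of greenhouse growth at 25–30 °C.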

Galium spurium = assay: Test Example 5: herbicidal effect by foliage application, plastic box (symbol Q); conditions: 3 weeks after application
Procedure, shortened: (§2)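 After sowing into sterilized diluvial soil and growing two weeks under glass at 25° C. to 30° C., seedlings receive a uniform foliar spray of diluted emulsion. Damage is judged visually three weeks on.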

Abutilon theophrasti = assay: Test Example 4: herbicidal effect by soil treatment (symbol M); conditions: for Herbicidal effect grade, M: Abutilon theophrasti: application herbicide amount 320 g/ha
Procedure, shortened: as §1

corn = assay: Test Example 5: effect on crop by foliage application, plastic box (symbol c); conditions: 3 weeks after application
Procedure, shortened: (§3)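 Crop and weed seeds sown in spots in sterilized diluvial soil in plastic boxes and covered with about 1.5 cm soil. Plants raised in a greenhouse at 25° C. to 30° C. for foliar application.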

beet = assay: Test Example 5: effect on crop by foliage application, plastic box (symbol f); conditions: 3 weeks after application
Procedure, shortened: as §3

wheat = assay: Test Example 5: effect on crop by foliage application, plastic box (symbol e); conditions: 3 weeks after application
Procedure, shortened: as §3

rapeseed = assay: Test Example 4: effect on crop by soil treatment (symbol g); conditions: for Effect on crop grade, g: rapeseed: application herbicide amount 320 g/ha
Procedure, shortened: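 The test used sterilized diluvial soil. Seed was set down in spots and overlaid with about 1.5 cm of soil before growth in a greenhouse kept at 25° C. to 30° C.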

Apera spica-venti = assay: Test Example 5: herbicidal effect by foliage application, plastic box (symbol L); conditions: 3 weeks after application
Procedure, shortened: as §2

Leptochloa chinensis = assay: Test Example 3: herbicidal effect by foliage application, Wagner pot (symbol D); conditions: for D (Leptochloa chinensis) herbicidal effect grade: Table 24
Procedure, shortened: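 Plants sown in submerged alluvial soil (water depth 0.1–0.5 cm) in a 25–30 °C greenhouse and grown 14 days. An emulsion of the compound diluted in water to a set herbicide amount was sprayed uniformly on foliage. Effect on each plant scored 3 weeks after application.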

[1] = tested on: directly sowed rice plant; assay: Test Example 3: effect on crop by foliage application, Wagner pot (symbol b); conditions: for b (directly sowed rice plant) effect on crop grade: Table 24
Procedure, shortened: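 Greenhouse culture at 25–30 °C of seeded rice, Cyperus difformis, Leptochloa chinensis and Echinochloa crus-galli var. crus-galli, in alluvial soil held under 0.1–0.5 cm of water in a Wagner pot.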

Digitaria ciliaris = assay: Test Example 4: herbicidal effect by soil treatment (symbol F); conditions: for Herbicidal effect grade, F: Digitaria ciliaris: application herbicide amount 320 g/ha
Procedure, shortened: as §1

[2] = application herbicide amount 320 g/ha
[3] = application herbicide amount 102 g/ha

Row | SMILES | Effect grade on crop, a: transplanted rice plant (transplanted rice plant; [2]) | N: Amaranthus retroflexus, herbicidal effect grade (Amaranthus retroflexus; 320 g/ha) | Herbicidal effect grade, C: Monochoria vaginalis (Monochoria vaginalis; [2]) | Q: Galium spurium, herbicidal effect (criteria 0-5) (Galium spurium; 320 g/ha) | M: Abutilon theophrasti, herbicidal effect grade (Abutilon theophrasti; 320 g/ha) | c: corn, effect on crop (criteria 0-5) (corn; 320 g/ha) | f: beet, effect on crop (criteria 0-5) (beet; 320 g/ha) | e: wheat, effect on crop (criteria 0-5) (wheat; 320 g/ha) | g: rapeseed, effect grade on crop (rapeseed; 320 g/ha) | L: Apera spica-venti, herbicidal effect (criteria 0-5) (Apera spica-venti; 320 g/ha) | herbicidal effect on D (Leptochloa chinensis), grade 0-5 (Leptochloa chinensis; [2]) | effect on crop b (directly sowed rice plant), grade 0-5 [1, 2] | F: Digitaria ciliaris, herbicidal effect grade (Digitaria ciliaris; 320 g/ha) | a (transplanted rice plant) effect on crop grade (transplanted rice plant; [2]) | Herbicidal effect grade, N: Amaranthus retroflexus (Amaranthus retroflexus) | C (Monochoria vaginalis) herbicidal effect grade (Monochoria vaginalis; [2]) | Q: Galium spurium, herbicidal effect grade (Galium spurium; 320 g/ha) | Herbicidal effect grade, M: Abutilon theophrasti (Abutilon theophrasti) | c: corn, effect on crop grade (corn; 320 g/ha) | f: beet, effect on crop grade (beet; 320 g/ha) | also measured
1 | CON=C(C)CC1CC(OS(=O)(=O)N(C)C)=C(c2c(C)cc(C)cc2C)C1=O (centres unmarked) [1-122] | 5 (Herbicidal ratio of 90% or more (almost completely withered)) | 0 (Herbicidal ratio of 5% or lower (almost no effect)) | 0 (Herbicidal ratio of 5% or lower (almost no effect)) | 0 (Herbicidal ratio of 5% or lower (almost no effect)) | 0 (Herbicidal ratio of 5% or lower (almost no effect)) | 5 (Herbicidal ratio of 90% or more (almost completely withered)) | 0 (Herbicidal ratio of 5% or lower (almost no effect)) | 4 (Herbicidal ratio of 70% or higher and lower than 90%) | 0 (Herbicidal ratio of 5% or lower (almost no effect)) | 5 (Herbicidal ratio of 90% or more (almost completely withered)) | 5 (Herbicidal ratio of 90% or more (almost completely withered)) | 5 (Herbicidal ratio of 90% or more (almost completely withered)) | 2 (Herbicidal ratio of 20% or higher and lower than 40%) | – | – | – | – | – | – | – | –
2 | CC(CC1CC(O)=C(c2c(C)cc(C)cc2C)C1=O)=NOCC(C)Br (centres unmarked) [1-135] | 5 (Herbicidal ratio of 90% or more (almost completely withered)) | 0 (Herbicidal ratio of 5% or lower (almost no effect)) | 1 (Herbicidal ratio of 5% or higher and lower than 20%) | 0 (Herbicidal ratio of 5% or lower (almost no effect)) | 0 (Herbicidal ratio of 5% or lower (almost no effect)) | 4 (Herbicidal ratio of 70% or higher and lower than 90%) | 0 (Herbicidal ratio of 5% or lower (almost no effect)) | 2 (Herbicidal ratio of 20% or higher and lower than 40%) | 2 (Herbicidal ratio of 20% or higher and lower than 40%) | 5 (Herbicidal ratio of 90% or more (almost completely withered)) | 4 (Herbicidal ratio of 70% or higher and lower than 90%) | 5 (Herbicidal ratio of 90% or more (almost completely withered)) | 5 (Herbicidal ratio of 90% or more (almost completely withered)) | – | – | – | – | – | – | – | –
3 | CC#Cc1cc(C)c(C2=C(O)CC(CC(=NOCC(F)(F)F)C(C)C)C2=O)c(C)c1 (centres unmarked) [9-015] | – | – | – | – | – | – | – | – | – | – | – | – | – | 5 (Herbicidal ratio of 90% or more (almost completely withered)) | 0 (Herbicidal ratio of 5% or lower (almost no effect)) | 1 (Herbicidal ratio of 5% or higher and lower than 20%) | 2 (Herbicidal ratio of 20% or higher and lower than 40%) | 0 (Herbicidal ratio of 5% or lower (almost no effect)) | 5 (Herbicidal ratio of 90% or more (almost completely withered)) | 0 (Herbicidal ratio of 5% or lower (almost no effect)) | e: wheat, effect on crop grade (wheat; 320 g/ha): 3 (Herbicidal ratio of 40% or higher and lower than 70%); Effect on crop grade, g: rapeseed (rapeseed): 0 (Herbicidal ratio of 5% or lower (almost no effect)); L: Apera spica-venti, herbicidal effect grade (Apera spica-venti; 320 g/ha): 5 (Herbicidal ratio of 90% or more (almost completely withered)); D (Leptochloa chinensis) herbicidal effect grade (Leptochloa chinensis; [2]): 5 (Herbicidal ratio of 90% or more (almost completely withered)); b (directly sowed rice plant) effect on crop grade [1, 2]: 5 (Herbicidal ratio of 90% or more (almost completely withered)); Herbicidal effect grade, F: Digitaria ciliaris (Digitaria ciliaris): 5 (Herbicidal ratio of 90% or more (almost completely withered))
4 | CC(=O)CC1CC(O)=C(c2c(C)cc(C)cc2C)C1=O (centres unmarked) [2-001, 3-hydroxy-2-mesityl-5-(2-oxopropyl)cyclopent-2-enone] | – | – | – | – | – | – | – | – | – | – | – | – | – | – | – | – | – | – | – | – | Effect grade on crop, a: transplanted rice plant (transplanted rice plant; [3]): 4 (Herbicidal ratio of 70% or higher and lower than 90%); N: Amaranthus retroflexus, herbicidal effect grade (Amaranthus retroflexus; 102 g/ha): 1 (Herbicidal ratio of 5% or higher and lower than 20%); Herbicidal effect grade, C: Monochoria vaginalis (Monochoria vaginalis; [3]): 0 (Herbicidal ratio of 5% or lower (almost no effect)); Q: Galium spurium, herbicidal effect grade (Galium spurium; 102 g/ha): 3 (Herbicidal ratio of 40% or higher and lower than 70%); M: Abutilon theophrasti, herbicidal effect grade (Abutilon theophrasti; 102 g/ha): 3 (Herbicidal ratio of 40% or higher and lower than 70%); c: corn, effect on crop grade (corn; 102 g/ha): 3 (Herbicidal ratio of 40% or higher and lower than 70%); f: beet, effect on crop grade (beet; 102 g/ha): 1 (Herbicidal ratio of 5% or higher and lower than 20%); e: wheat, effect on crop grade (wheat; 102 g/ha): 0 (Herbicidal ratio of 5% or lower (almost no effect)); g: rapeseed, effect grade on crop (rapeseed; 102 g/ha): 3 (Herbicidal ratio of 40% or higher and lower than 70%); L: Apera spica-venti, herbicidal effect grade (Apera spica-venti; 102 g/ha): 4 (Herbicidal ratio of 70% or higher and lower than 90%); herbicidal effect on D (Leptochloa chinensis), grade 0-5 (Leptochloa chinensis; [3]): 5 (Herbicidal ratio of 90% or more (almost completely withered)); effect on crop b (directly sowed rice plant), grade 0-5 [1, 3]: 5 (Herbicidal ratio of 90% or more (almost completely withered)); F: Digitaria ciliaris, herbicidal effect grade (Digitaria ciliaris; 102 g/ha): 5 (Herbicidal ratio of 90% or more (almost completely withered))
5 | CC(CC1CC(O)=C(c2c(C)cc(-n3cc(Cl)cn3)cc2C)C1=O)=NOCC(F)(F)F (centres unmarked) [9-010] | – | – | – | – | – | – | – | – | – | – | – | – | – | 5 (Herbicidal ratio of 90% or more (almost completely withered)) | 0 (Herbicidal ratio of 5% or lower (almost no effect)) | 4 (Herbicidal ratio of 70% or higher and lower than 90%) | 3 (Herbicidal ratio of 40% or higher and lower than 70%) | 0 (Herbicidal ratio of 5% or lower (almost no effect)) | 3 (Herbicidal ratio of 40% or higher and lower than 70%) | 0 (Herbicidal ratio of 5% or lower (almost no effect)) | e: wheat, effect on crop grade (wheat; 320 g/ha): 0 (Herbicidal ratio of 5% or lower (almost no effect)); Effect on crop grade, g: rapeseed (rapeseed): 0 (Herbicidal ratio of 5% or lower (almost no effect)); L: Apera spica-venti, herbicidal effect grade (Apera spica-venti; 320 g/ha): 5 (Herbicidal ratio of 90% or more (almost completely withered)); D (Leptochloa chinensis) herbicidal effect grade (Leptochloa chinensis; [2]): 5 (Herbicidal ratio of 90% or more (almost completely withered)); b (directly sowed rice plant) effect on crop grade [1, 2]: 5 (Herbicidal ratio of 90% or more (almost completely withered)); Herbicidal effect grade, F: Digitaria ciliaris (Digitaria ciliaris): 5 (Herbicidal ratio of 90% or more (almost completely withered))
